Laboratory results from ChEMBL document CHEMBL1126628, “Design, synthesis, and neurochemical evaluation of 5-(3-alkyl-1,2,4- oxadiazol-5-yl)-1,4,5,6-tetrahydropyrimidines as M1 muscarinic receptor agonists” (J Med Chem, 1993).

Assays:
Rattus norvegicus [1] = species: Rattus norvegicus
Description: Ability to stimulate phosphoinositol metabolism was examined in the rat cerebral cortex at 100 uM

[2] = biological target: Muscarinic acetylcholine receptor
Description: Inhibition of [3H]-(R)-QNB binding to muscarinic receptors of rat brain membranes.

Rattus norvegicus [3] = species: Rattus norvegicus; experiment: cells; conditions: Hippocampus
Description: Effective concentration of compound that can stimulate phosphoinositol metabolism in rat hippocampus

Rattus norvegicus [4] = species: Rattus norvegicus; experiment: cells; conditions: Hippocampus; remark: listed apart in the source
Description: Inhibition of the response (stimulation of phosphoinositol metabolism in rat hippocampus) to 10 uM of compound by pirenzepine

Rattus norvegicus [5] = species: Rattus norvegicus; experiment: Ability to stimulate phosphoinisitol metabolism was examined in the rat hippocampus represented as % maximal stimulation; format: functional
Rattus norvegicus [6] = species: Rattus norvegicus; experiment: cells; conditions: Hippocampus; remark: listed apart in the source
Description: Inhibition of the response (stimulation of phosphoinositol metabolism in rat hippocampus) to 10 uM of compound by p-F-hexahydrosiladifenidol

Rattus norvegicus [7] = species: Rattus norvegicus; experiment: cells; conditions: Hippocampus; remark: listed apart in the source
Description: Inhibition of the response (stimulation of phosphoinositol metabolism in rat hippocampus) to 10 uM of compound by AF-DX 116

Rattus norvegicus [8] = species: Rattus norvegicus; experiment: Ability to stimulate phosphoinisitol metabolism was examined in the rat hippocampus; format: functional

| IC50 [2] [nM] | Structure (SMILES) | PI (Rattus norvegicus [1]) [%] | also measured |
| --- | --- | --- | --- |
| 2300 | CCCCCCc1noc(C2CN=CNC2)n1.O=C(O)C(F)(F)F (configuration not stated) | 4.3 |  |
| 560 | CCCCCc1noc(C2CN=CNC2)n1.O=C(O)C(F)(F)F (configuration not stated) | 29 |  |
| 2300 | CCCCCCCc1noc(C2CN=CNC2)n1.O=C(O)C(F)(F)F (configuration not stated) | 34 |  |
| 550 | CCCc1noc(C2CN=CNC2)n1.O=C(O)C(F)(F)F (configuration not stated) | 79 |  |
| 490 | CCCCc1noc(C2CN=CNC2)n1.O=C(O)C(F)(F)F (configuration not stated) | 61 |  |

More lines, now with the values behind:

| Structure (SMILES) | IC50 [2] [nM] | PI (Rattus norvegicus [1]) [%] | also measured |
| --- | --- | --- | --- |
| Cc1noc(C2=CCCN(C)C2)n1 | 690 | 50 |  |
| CCCCCCCCc1noc(C2CN=CNC2)n1.O=C(O)C(F)(F)F (configuration not stated) | 530 | 28 |  |
| Cc1noc(C2CN=CNC2)n1.O=C(O)C(F)(F)F (configuration not stated) |  | 700 | EC50 (Rattus norvegicus [3]): 5200 nM; IC50 (Rattus norvegicus [4]): 38 nM; Max stimulation (Rattus norvegicus [5]): 510%; IC50 (Rattus norvegicus [6]): 1200 nM; IC50 (Rattus norvegicus [7]): 1700 nM |
| Cc1noc(C2CN3CCC2CC3)n1 (configuration not stated) | 350 | 100 |  |
| CCc1noc(C2CN=CNC2)n1.O=C(O)C(F)(F)F (configuration not stated) |  | 130 |  |
| CC(=O)OC1CN2CCC1CC2 (configuration not stated) [ACECLIDINE] |  | 80 | Max stimulation (Rattus norvegicus [8]): 390%; IC50 (Rattus norvegicus [6]): 23 nM |
| C[N+](C)(C)CCOC(N)=O.[Cl-] [CARBACHOL] |  | 470 |  |
